# Data from the supplement of paper PMC11451515.
# System: NOMO1
# Assay: cell viability relative to DMSO control; higher = less cytotoxic
# Settings: 48 h
# Summary of the method: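 Before seeding, each leukemia line was adapted for at least four passages in each medium. NOMO1 or SEM cells (500 cells/well) and P12-Ichikawa cells (1000 cells/well) went into 1536-well plates at 5 μl, then received library compounds in DMSO by pin dosing across 11 threefold concentrations, 47 μM to 0.79 nM. Readout was CellTiter-Glo One luminescence after 48 h at 37°C, and viability is given as a per-plate percentage of DMSO wells, with cell-free wells as background.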
# [1] = HPLM + 10% dialyzed FBS, 0.000781 µM
# [2] = HPLM + 10% dialyzed FBS, 0.00234 µM
# [3] = HPLM + 10% dialyzed FBS, 0.00702 µM
# [4] = HPLM + 10% dialyzed FBS, 0.0211 µM
# [5] = HPLM + 10% dialyzed FBS, 0.0632 µM
# [6] = HPLM + 10% dialyzed FBS, 0.19 µM
# [7] = HPLM + 10% dialyzed FBS, 0.569 µM
# [8] = HPLM + 10% dialyzed FBS, 1.71 µM
# [9] = HPLM + 10% dialyzed FBS, 5.12 µM
# [10] = HPLM + 10% dialyzed FBS, 15.4 µM
# [11] = HPLM + 10% dialyzed FBS, 46.1 µM
# [12] = RPMI 5 mM glucose + 10% FBS, 0.000781 µM
# [13] = RPMI 5 mM glucose + 10% FBS, 0.00234 µM
# [14] = RPMI 5 mM glucose + 10% FBS, 0.00702 µM
# [15] = RPMI 5 mM glucose + 10% FBS, 0.0211 µM
# [16] = RPMI 5 mM glucose + 10% FBS, 0.0632 µM
# [17] = RPMI 5 mM glucose + 10% FBS, 0.19 µM
# [18] = RPMI 5 mM glucose + 10% FBS, 0.569 µM
# [19] = RPMI 5 mM glucose + 10% FBS, 1.71 µM
# [20] = RPMI 5 mM glucose + 10% FBS, 5.12 µM
# [21] = RPMI 5 mM glucose + 10% FBS, 15.4 µM
# [22] = RPMI 5 mM glucose + 10% FBS, 46.1 µM
# [23] = RPMI 5 mM glucose + 10% dialyzed FBS, 0.000781 µM
# [24] = RPMI 5 mM glucose + 10% dialyzed FBS, 0.00234 µM
# [25] = RPMI 5 mM glucose + 10% dialyzed FBS, 0.00702 µM
# [26] = RPMI 5 mM glucose + 10% dialyzed FBS, 0.0211 µM
# [27] = RPMI 5 mM glucose + 10% dialyzed FBS, 0.0632 µM
# [28] = RPMI 5 mM glucose + 10% dialyzed FBS, 0.19 µM
# [29] = RPMI 5 mM glucose + 10% dialyzed FBS, 0.569 µM
# [30] = RPMI 5 mM glucose + 10% dialyzed FBS, 1.71 µM
# [31] = RPMI 5 mM glucose + 10% dialyzed FBS, 5.12 µM
# [32] = RPMI 5 mM glucose + 10% dialyzed FBS, 15.4 µM
# [33] = RPMI 5 mM glucose + 10% dialyzed FBS, 46.1 µM
SMILES,cell viability [1] [%],cell viability [2] [%],cell viability [3] [%],cell viability [4] [%],cell viability [5] [%],cell viability [6] [%],cell viability [7] [%],cell viability [8] [%],cell viability [9] [%],cell viability [10] [%],cell viability [11] [%],cell viability [12] [%],cell viability [13] [%],cell viability [14] [%],cell viability [15] [%],cell viability [16] [%],cell viability [17] [%],cell viability [18] [%],cell viability [19] [%],cell viability [20] [%],cell viability [21] [%],cell viability [22] [%],cell viability [23] [%],cell viability [24] [%],cell viability [25] [%],cell viability [26] [%],cell viability [27] [%],cell viability [28] [%],cell viability [29] [%],cell viability [30] [%],cell viability [31] [%],cell viability [32] [%],cell viability [33] [%]
CC(C)[N+]1(C)C2CCC1CC(OC(=O)C(CO)c1ccccc1)C2.O.[Br-] (centres undefined),129,118,120,117,123,119,148,134,101,58.8,21.9,103,105,95.1,118,108,123,101,116,109,92.3,48.6,115,115,119,110,132,114,127,121,105,93.2,60.7
CC(C)Cn1cnc2c(N)nc3ccccc3c21,120,124,120,116,118,121,117,112,94.5,102,89.4,98.9,110,116,109,114,103,108,103,108,95.3,105,112,107,102,128,109,110,115,103,96,98.8,100
COc1cc2c(Nc3ccc(Cl)c(Cl)c3F)ncnc2cc1OC[C@@H]1C[C@@H]2CN(C)C[C@@H]2C1,97.3,99,106,104,128,127,93.3,101,96.6,45.6,6.66,93.7,104,115,106,103,115,110,109,111,97.8,6.22,93.4,116,111,112,112,104,107,105,111,92.1,4.94
CC(C)(O)C(=O)Nc1ccc([N+](=O)[O-])c(C(F)(F)F)c1,94.7,116,131,124,122,135,126,65.8,38,30.6,30.5,118,123,124,122,120,132,125,51.1,29,24.1,25.7,–,–,–,–,–,–,–,–,–,–,–
COc1ccc(C2(C#N)CCC(C(=O)O)CC2)cc1OC1CCCC1 (centres undefined),91,109,95,116,120,123,113,113,111,102,108,82.4,91.8,84.9,87.5,94.1,96.8,96.3,85.7,101,89.6,90.6,99.5,105,98.3,102,98.2,95,107,101,101,100,105
Cc1nc(N)ncc1-c1nc(N2CCOCC2)c2sc(C(C)(C)O)cc2n1,–,–,–,–,–,–,–,–,–,–,–,109,118,113,117,106,64,18.7,18.5,10.5,9.97,9.89,114,113,94.2,111,89.5,86.4,28.1,22.6,13.3,11.4,7.33
Cc1cnc(Nc2ccc(N3CCN(C)CC3)cc2)nc1Nc1cccc([S+](=O)([O-])NC(C)(C)C)c1,122,117,115,104,122,120,95.7,80.2,65.8,45.5,5.81,100,108,99.1,98.6,101,102,102,87.6,77.8,44.6,15.2,112,113,107,111,110,94.2,101,95.8,74.6,56.8,21.5
Oc1c(Cl)cc(Cl)c2cccnc12,102,113,115,93.6,97.4,92.6,113,91.4,96.2,111,81.6,91.7,69.2,105,94.3,92.6,98.4,116,90.6,84.8,91.6,62.6,93.1,90.8,108,97.7,103,94.3,121,101,101,91.7,56.5
COc1ccc([S+](=O)([O-])Nc2cccnc2Nc2ccc(O)cc2)cc1,–,–,–,–,–,–,–,–,–,–,–,117,107,116,115,121,101,129,97.6,28.6,23.2,29.4,119,113,110,111,114,110,116,114,71.5,36,33.5
